Bridge positions count the residues as written; N and C are the ends. Ends that are not written are not given here. Peptide text beside a SMILES is read from it. * marks the point of attachment. FITC = O=C1OC2(c3ccc(O)cc3Oc3cc(O)ccc32)c2ccc(NC(=S)*)cc21; Stearoyl = CCCCCCCCCCCCCCCCCC(=O)*
Tests used:
[1] = system: HPV-Lucia (HPV16 pseudovirus carrying Lucia); details: for Relative anti-HPV activity: CHO-K1 cells, HPV-Lucia, Lucia activity at 36 hpi, potency compared with WT peptide (13-48, 100%) used at four concentrations; for IC50: 4 h
[2] = system: HPV-GFP (HPV16 pseudovirus carrying GFP); format: cell-based; details: HeLa cells; ∼500 nM lipopeptide during inoculation; GFP at 36 hpi
HeLa cells = experiment: L2N-FITC peptide binding and uptake assay; format: cell-based, homo sapiens; details: 500 nM FITC-m13-46st for indicated times, three PBS washes, fluorescence imaging
Description: (§1) FIG 5 The L2N lipopeptide blocks HPV entry without affecting HPV capsid priming and internalization. (A) Cell binding and uptake of L2N lipopeptide. HeLa cells were incubated with 500 nM FITC-m13-46st peptide for indicated times. Images were captured after three PBS washes. Bar, 25 μm. (B) L2N lipopeptide inhibits HPV-GFP entry. HeLa cells were treated with 500 nM L2N lipopeptide (13-46st) before (pre), during (co), or after (post) HPV-GFP inoculation. Mock, no peptide treatment. GFP intensity was analyzed at 36 hpi. Bar, 200 μm. (C) Peptide addition/withdrawal assays were performed as indicated in the schematic diagram (top). CHO-K1 cells were incubated with HPV-Lucia at 4°C for 2 h. The 13-46st lipopeptide (500 nM) was subsequently added or withdrawn from the medium 1, 2, 4, 8, and 16 h after viral attachment. Lucia activity was analyzed at 40 hpi. (D) CHO-K1 cells were infected with HPV-L2-PSTCD-3×FLAG (MOI of 50) and treated with the indicated chemicals: 500 nM dRVRK, 500 nM L2N lipopeptide 13-46st (L2N), 100 nM BafA1, and 1 μM γ-secretase inhibitor XXI. L2 immunoblotting was performed with anti-FLAG antibody at 16 hpi. […] Intracellular L1 and L2 levels were determined by immunoblotting with MD2H11 and JWW-1, respectively. […] HPV L2 JWW-1 epitope exposure was analyzed by immunostaining with JWW-1 antibody (in red). […]

furin cleavage of HPV L2 = experiment: Furin cleavage of PSTCD-fused L2 (immunoblot); format: cell-based, HPV16; details: CHO-K1 cells, HPV-L2-PSTCD-3×FLAG MOI of 50; 500 nM dRVRK, 500 nM 13-46st, 100 nM BafA1, 1 μM γ-secretase inhibitor XXI; anti-FLAG immunoblot
Description: as §1, with “The 13-46st lipopeptide (500 nM) was subsequently added or withdrawn from the medium 1, 2, 4, 8, and 16 h after viral attachment.” left out, “40” for “40 hpi. (D) CHO-K1 cells were infected with HPV-L2-PSTCD-3×FLAG (MOI of 50) and treated with the indicated chemicals: 500 nM dRVRK, 500 nM L2N lipopeptide 13-46st (L2N), 100 nM BafA1, and 1 μM γ-secretase inhibitor XXI. L2 immunoblotting was performed with anti-FLAG antibody at 16”
To further dissect how the L2N lipopeptide interfered with HPV entry, we tested whether furin cleavage, internalization, and JWW-1 epitope exposure of HPV were affected by peptide treatment in either CHO-K1 cells or HeLa cells. Furin cleavage was analyzed by infection of HPV PsV carrying Propionibacterium shermanii transcarboxylase domain (PSTCD)-fused L2. […] Internalization of viral particles was analyzed by detecting intracellular L1 and L2 at 2 h postinfection.

13-48CVIM: HPV16 L2N13-48 lipopeptide produced in 293T cells, CVIM motif isoprenylated (geranylgeranylation), released by furin
Relative anti-HPV activity [1]: 100% | inhibition of HPV-GFP infection by L2N-CVIM lipopeptides (in words) [2]: suppressed HPV-GFP infection

13-55CVIM: HPV16 L2N13-55 lipopeptide produced in 293T cells, CVIM motif isoprenylated, released by furin
Relative anti-HPV activity [1]: 10% | inhibition of HPV-GFP infection by L2N-CVIM lipopeptides (in words) [2]: suppressed HPV-GFP infection

CCCCCCCCCCCCCCCCCC(=O)NCCCC[C@H](NC(=O)[C@H](CO)NC(=O)CNC(=O)[C@H](Cc1ccc(O)cc1)NC(=O)[C@H](CCC(N)=O)NC(=O)[C@H](CC(C)C)NC(=O)[C@@H](NC(=O)[C@H](CCC(N)=O)NC(=O)[C@H](CCCCN)NC(=O)[C@H](C)NC(=O)[C@@H](NC(=O)[C@@H](NC(=O)[C@H](CCCCN)NC(=O)CNC(=O)[C@H](CCC(=O)O)NC(=O)[C@@H](NC(=O)[C@H](CCCCN)NC(=O)[C@@H]1CCCN1C(=O)[C@@H](NC(=O)[C@@H](NC(=O)[C@H](CC(=O)O)NC(=O)[C@@H]1CCCN1C(=O)[C@@H]1CCCN1C(=O)[C@@H]1CSSC[C@H](NC(=O)[C@@H](NC(=O)[C@H](CCCCN)NC(=O)[C@H](Cc2ccc(O)cc2)NC(=O)[C@H](CC(C)C)NC(=O)[C@H](CCC(N)=O)NC(=O)[C@@H](NC(=O)[C@H](C)NC(=O)[C@H](CO)NC(=O)[C@H](C)N)[C@@H](C)O)[C@@H](C)O)C(=O)N[C@@H](CCCCN)C(=O)N[C@@H](CCC(N)=O)C(=O)N[C@@H](C)C(=O)NCC(=O)N[C@@H]([C@@H](C)O)C(=O)N1)[C@@H](C)CC)[C@@H](C)CC)C(C)C)[C@@H](C)O)[C@@H](C)CC)[C@@H](C)CC)C(=O)O [13-50st-D43K] (H-ASATQLYKTCKQAGTCPPDIIPKVEGKTIAKQILQYGSK(Stearoyl)-OH; disulfide 10-16)
IC50 [1]: 0.2 µM

CCCCCCCCCCCCCCCCCC(=O)NCCCC[C@H](NC(=O)[C@H](CO)NC(=O)CNC(=O)[C@H](Cc1ccc(O)cc1)NC(=O)[C@H](CCC(N)=O)NC(=O)[C@H](CC(C)C)NC(=O)[C@@H](NC(=O)[C@H](CCC(N)=O)NC(=O)[C@H](CC(=O)O)NC(=O)[C@H](C)NC(=O)[C@@H](NC(=O)[C@@H](NC(=O)[C@H](CCCCN)NC(=O)CNC(=O)[C@H](CCC(=O)O)NC(=O)[C@@H](NC(=O)[C@H](CCCCN)NC(=O)[C@@H]1CCCN1C(=O)[C@@H](NC(=O)[C@@H](NC(=O)[C@H](CC(=O)O)NC(=O)[C@@H]1CCCN1C(=O)[C@@H]1CCCN1C(=O)[C@@H]1CSSC[C@H](NC(=O)[C@@H](NC(=O)[C@H](CCCCN)NC(=O)[C@H](Cc2ccc(O)cc2)NC(=O)[C@H](CC(C)C)NC(=O)[C@H](CCC(N)=O)NC(=O)[C@@H](NC(=O)[C@H](C)NC(=O)[C@H](CO)NC(=O)[C@H](C)N)[C@@H](C)O)[C@@H](C)O)C(=O)N[C@@H](CCCCN)C(=O)N[C@@H](CCC(N)=O)C(=O)N[C@@H](C)C(=O)NCC(=O)N[C@@H]([C@@H](C)O)C(=O)N1)[C@@H](C)CC)[C@@H](C)CC)C(C)C)[C@@H](C)O)[C@@H](C)CC)[C@@H](C)CC)C(=O)O [13-50st] (H-ASATQLYKTCKQAGTCPPDIIPKVEGKTIADQILQYGSK(Stearoyl)-OH; disulfide 10-16)
IC50 [1]: 0.03 µM

CCCCCCCCCCCCCCCCCC(=O)NCCCC[C@H](NC(=O)[C@H](CCCCNC(=S)Nc1ccc2c(c1)C(=O)OC21c2ccc(O)cc2Oc2cc(O)ccc21)NC(=O)[C@H](CO)NC(=O)CNC(=O)[C@H](CC(C)C)NC(=O)[C@@H](NC(=O)[C@H](CCCNC(=N)N)NC(=O)[C@H](CC(=O)O)NC(=O)[C@H](C)NC(=O)[C@H](CC(C)C)NC(=O)[C@@H](NC(=O)[C@H](CC(N)=O)NC(=O)CNC(=O)[C@H](CCC(=O)O)NC(=O)[C@@H](NC(=O)[C@H](CCCCN)NC(=O)[C@H](CC(N)=O)NC(=O)[C@@H](NC(=O)[C@@H](NC(=O)[C@H](CC(=O)O)NC(=O)[C@@H]1CCCN1C(=O)[C@@H]1CCCN1C(=O)[C@@H]1CSSC[C@H](NC(=O)[C@H](CCC(N)=O)NC(=O)[C@H](CCCNC(=N)N)NC(=O)[C@H](Cc2ccc(O)cc2)NC(=O)[C@H](CC(C)C)NC(=O)[C@H](CC(N)=O)NC(=O)[C@H](CO)NC(=O)[C@H](C)NC(=O)[C@H](CO)NC(=O)[C@@H](N)CC(=O)O)C(=O)N[C@@H](CCC(N)=O)C(=O)N[C@@H](C(C)C)C(=O)N[C@@H]([C@@H](C)O)C(=O)NCC(=O)N[C@@H](CC(N)=O)C(=O)N1)C(C)C)C(C)C)C(C)C)[C@@H](C)O)[C@@H](C)CC)C(=O)O [FITC-m13-46st] (H-DSASNLYRQCQVTGNCPPDVVNKVEGNTLADRILGSK(FITC)K(Stearoyl)-OH; disulfide 10-16)
IC50 [1]: < 0.01 µM | cell binding and uptake of the lipopeptide (HeLa cells): readily detected on HeLa cells at 15 min postincubation, and significant internalization was observed at 30 min postincubation and became apparent at 2 h postincubation

CCCCCCCCCC(=O)N[C@@H](CCCN=C(N)N)C(=O)N[C@H](C(=O)N[C@@H](CCCCN)C(=O)N[C@@H](CCCN=C(N)N)C(=O)CCl)C(C)C [dRVRK] (HELM PEPTIDE1{[CCCCCCCCCC(=O)[*:2]].R.V.K.R.[ClC[*:1]]}$$$$V2.0)
furin cleavage of L2 (furin cleavage of HPV L2): furin cleavage was inhibited

ASATQLYKTCKQAGTCPPDIIPKVEGKTIADQILQYGSMGVFF (disulfide 10-16) [13-55-no st]
IC50 [1]: > 1 µM

ASATQLYKTCKQAGTCPPDIIPKVEGKTIADQILQYGSMGVFFK(Stearoyl) (disulfide 10-16) [13-55st]
IC50 [1]: 0.1 µM

SVIM: L2N13-48 peptide with cysteine-to-serine mutation in the CVIM motif, negative control
Relative anti-HPV activity [1]: 0% | inhibition of HPV-GFP infection by L2N-CVIM lipopeptides (in words) [2]: completely abolished their ability to inhibit HPV-GFP infection

pZeo5-tSA-Furin-13-44GT-CVIM: HPV16 L2N13-48 lipopeptide with deletion of ILQY
Relative anti-HPV activity [1]: < 0.8%

pZeo5-tSA-Furin-13-46-CVIM: HPV16 L2N13-46 lipopeptide with deletion of QYGT
Relative anti-HPV activity [1]: 5%

pZeo5-tSA-Furin-13-46GT-CVIM: HPV16 L2N lipopeptide with L2N13-46
Relative anti-HPV activity [1]: 200%

pZeo5-tSA-Furin-13-48GT-CVIM-D31K: HPV16 L2N13-48 lipopeptide with D31K
Relative anti-HPV activity [1]: 20%

pZeo5-tSA-Furin-13-48GT-CVIM-QQKK: HPV16 L2N13-48 lipopeptide with double Q44K and Q47K
Relative anti-HPV activity [1]: 150%

pZeo5-tSA-Furin-13-48GT-CVIM-d42: HPV16 L2N13-48 lipopeptide with deletion of A42 (ASATQLYKTCKQAGTCPPDIIPKVEGKTIEQILQY; not fully specified (C-terminus); cysteine pairing not given here; also: CVIM isoprenylation motif lipopeptide; UniProt P03107 13-48, looked up, variant A42*)
Relative anti-HPV activity [1]: < 1%
